Source: patent US10287301B2 (Achillion Pharmaceuticals, Inc., priority 2015, dated 2019)
Where two headings read alike, the source gives them in different places.

Target: Human Factor D (Homo sapiens (Human), UniProt P00746)
Assay: Human Factor D Assay
Format: biochemical
In short: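 First, compound at various concentrations is mixed with 80 nM (final) human serum Factor D in 50 mM Tris, 1M NaCl, pH 7.5 for 5 min at room temperature.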

[1] = Human Factor D assay of Example 8, Table 2, read-out: IC50
[2] = Table 3, Human Factor D 80 nM, substrate Z-L-Lys-SBzl, read-out: IC50 (Stars)
[3] = Human Factor D, Table 3, read-out: IC50
[4] = Human Factor D 80 nM, substrate Z-L-Lys-SBzl, read-out: IC50

Human Factor D, sequence (P00746 26-253): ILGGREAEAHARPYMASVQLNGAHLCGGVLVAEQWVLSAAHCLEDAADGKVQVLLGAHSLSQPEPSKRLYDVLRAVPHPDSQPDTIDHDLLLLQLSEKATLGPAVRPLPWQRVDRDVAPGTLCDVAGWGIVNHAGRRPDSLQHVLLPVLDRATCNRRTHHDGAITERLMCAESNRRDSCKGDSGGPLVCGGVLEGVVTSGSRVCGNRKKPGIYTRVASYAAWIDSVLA

Q: COC(=O)c1ncc(-c2ccc3c(c2)c(C(C)=O)cn3CC(=O)N2C[C@H](F)C[C@H]2C(=O)Nc2cccc(-c3ccccc3Cl)c2F)cn1 [Compound 204, methyl 5-(3-acetyl-1-(2-((2S,4R)-2-(2′-chloro-2-fluorobiphenyl-3-ylcarbamoyl)-4-fluoropyrrolidin-1-yl)-2-oxoethyl)-1H-indol-5-yl)pyrimidine-2-carboxylate] was tested. Which IC50 [1] did it give?
A: < 1 µM

Q: With CC(=O)c1nn(CC(=O)N2C[C@H](F)C[C@H]2C(=O)Nc2cccc(Br)n2)c2ccc(-c3nc4c(s3)CCCC4)cc12 [Compound 297] as the molecule, how does the IC50 [1] read?
A: > 10 µM

Q: For CC(=O)c1nn(CC(=O)N2C[C@H](F)C[C@H]2C(=O)Nc2ccn(CC(F)F)n2)c2ccc(-c3cnc(C)nc3)cc12 [Compound 401, (2S,4R)-1-(2-(3-Acetyl-5-(2-methylpyrimidin-5-yl)-1H-indazol-1-yl)acetyl)-N-(1-(2,2-difluoroethyl)-1H-pyrazol-3-yl)-4-fluoropyrrolidine-2-carboxamide], which IC50 [2] is on record?
A: < 1 µM

Q: How did the IC50 [3] turn out when CCc1cc2ncc(-c3ccc4c(c3)c(C(C)=O)nn4CC(=O)N3C[C@H](F)C[C@H]3C(=O)Nc3cccc(Br)n3)cn2n1 [Compound 681, (2S,4R)-1-(2-(3-Acetyl-5-(2-ethylpyrazolo[1,5-a]pyrimidin-6-yl)-1H-indazol-1-yl)acetyl)-N-(6-bromopyridin-2-yl)-4-fluoropyrrolidine-2-carboxamide] was run?
A: < 1 µM

Q: For CC(=O)c1cn(CC(=O)N2C[C@H](F)C[C@H]2C(=O)Nc2cccc(Cl)n2)c2ccc(-c3cnc(C)nc3)cc12 [Compound 137, (2S,4R)-1-(2-(3-acetyl-5-(2-methylpyrimidin-5-yl)-1H-indol-1-yl)acetyl)-N-(6-chloropyridin-2-yl)-4-fluoropyrrolidine-2-carboxamide], which IC50 [4] is on record?
A: < 1 µM

Q: With CC(=O)c1cn(CC(=O)N2C[C@H](F)C[C@H]2C(=O)Nc2cccc(-c3ccccc3Cl)c2F)c2ccc(-c3cnc(C)c(Cl)c3)cc12 [Compound 207, (2S,4R)-1-(2-(3-acetyl-5-(5-chloro-6-methylpyridin-3-yl)-1H-indol-1-yl)acetyl)-N-(2′-chloro-2-fluorobiphenyl-3-yl)-4-fluoropyrrolidine-2-carboxamide] as the molecule, how does the IC50 [1] read?
A: < 1 µM

Q: For CC(=O)c1cn(CCN2C[C@H](F)C[C@H]2C(=O)Nc2cccc(OC(F)(F)F)c2F)c2ccc(-c3cnc4cc(C)nn4c3)cc12 [Compound 701, (2S,4R)-1-(2-(3-Acetyl-5-(2-methylpyrazolo[1,5-a]pyrimidin-6-yl)-1H-indol-1-yl)ethyl)-4-fluoro-N-(2-fluoro-3-(trifluoromethoxy)phenyl)pyrrolidine-2-carboxamide], which IC50 [3] is on record?
A: > 10 µM

Q: For COc1cc(Br)nc(NC(=O)[C@@H]2C[C@@H](F)CN2C(=O)Cn2nc(C(C)=O)c3cc(-c4cnc(N)nc4)ccc32)c1 [Compound 432, (2S,4R)-1-(2-(3-Acetyl-5-(2-aminopyrimidin-5-yl)-1H-indazol-1-yl)acetyl)-N-(6-bromo-4-methoxypyridin-2-yl)-4-fluoropyrrolidine-2-carboxamide], which IC50 [2] is on record?
A: < 1 µM

Q: How did the IC50 [1] turn out when CC(=O)c1nn(CC(=O)N2C[C@H](F)C[C@H]2C(=O)NCc2cccc(Cl)c2F)c2ccc(-c3cnc(C)nc3)cc12 [Compound 226, (2S,4R)-1-(2-(3-acetyl-5-(2-methylpyrimidin-5-yl)-1H-indazol-1-yl)acetyl)-N-(3-chloro-2-fluorobenzyl)-4-fluoropyrrolidine-2-carboxamide] was run?
A: < 1 µM

Q: How did the IC50 [1] turn out when Cc1ncc(-c2cc3c(s2)c(C(N)=O)nn3CC(=O)N2C[C@H](F)C[C@H]2C(=O)Nc2cccc(-c3ccccc3Cl)c2F)cn1 [Compound 314, 1-(2-((2S,4R)-2-((2′-Chloro-2-fluoro-[1,1′-biphenyl]-3-yl)carbamoyl)-4-fluoropyrrolidin-1-yl)-2-oxoethyl)-5-(2-methylpyrimidin-5-yl)-1H-thieno[3,2-c]pyrazole-3-carboxamide] was run?
A: < 1 µM

Q: With CC(=O)c1cn(CC(=O)N2C[C@H](F)C[C@H]2C(=O)Nc2ccc(CN)cc2)c2ccc(-c3ccnnc3)cc12 [Compound 85, (2S,4R)-1-(2-(3-acetyl-5-(pyridazin-4-yl)-1H-indol-1-yl)acetyl)-N-(4-(aminomethyl)phenyl)-4-fluoropyrrolidine-2-carboxamide] as the molecule, how does the IC50 [4] read?
A: > 10 µM

Q: For NC(=O)c1nn(CC(=O)N2C[C@H](F)C[C@H]2C(=O)NCc2ccncc2)c2ccc(-c3ccnnc3)cc12 [Compound 157, 1-(2-((2S,4R)-4-fluoro-2-(pyridin-4-ylmethylcarbamoyl)pyrrolidin-1-yl)-2-oxoethyl)-5-(pyridazin-4-yl)-1H-indazole-3-carboxamide], which IC50 [4] is on record?
A: > 10 µM

Q: Which IC50 [1] does the source give for CC(=O)c1ccc(Cl)c(-c2cccc(NC(=O)[C@@H]3C[C@@H](F)CN3C(=O)Cn3nc(C(C)=O)c4cc(-c5cnc(C)nc5)ccc43)c2F)c1 [Compound 192, (2S,4R)-N-(5′-acetyl-2′-chloro-2-fluorobiphenyl-3-yl)-1-(2-(3-acetyl-5-(2-methylpyrimidin-5-yl)-1H-indazol-1-yl)acetyl)-4-fluoropyrrolidine-2-carboxamide] here?
A: < 1 µM

Q: How did the IC50 [3] turn out when CC(=O)c1nn(CC(=O)N2[C@@H]3C[C@@H]3C[C@H]2C(=O)NC/C(F)=C\c2ccccc2)c2ccc(-c3cnc(C)nc3)cc12 [Compound 575, (1R,3S,5R)-2-(2-(3-Acetyl-5-(2-methylpyrimidin-5-yl)-1H-indazol-1-yl)acetyl)-N-((E)-2-fluoro-3-phenylallyl)-2-azabicyclo[3.1.0]hexane-3-carboxamide] was run?
A: < 1 µM

Q: With CC(=O)c1nn(CC(=O)N2C[C@H](F)C[C@H]2C(=O)Nc2ncn(CC(F)(F)F)n2)c2ccc(-c3cnc(C)nc3)cc12 [Compound 378, (2S,4R)-1-(2-(3-Acetyl-5-(2-methylpyrimidin-5-yl)-1H-indazol-1-yl)acetyl)-4-fluoro-N-(1-(2,2,2-trifluoroethyl)-1H-1,2,4-triazol-3-yl)pyrrolidine-2-carboxamide] as the molecule, how does the IC50 [2] read?
A: < 1 µM

Q: Which IC50 [1] does the source give for CC(=O)c1nn(CC(=O)N2C[C@H](F)C[C@H]2C(=O)Nc2cccc(Br)n2)c2ccc(-c3cnc4ncccn34)cc12 [Compound 245, (2S,4R)-1-(2-(3-acetyl-5-(imidazo[1,2-a]pyrimidin-3-yl)-1H-indazol-1-yl)acetyl)-N-(6-bromopyridin-2-yl)-4-fluoropyrrolidine-2-carboxamide] here?
A: < 1 µM

Q: Which IC50 [2] does the source give for COc1ncc(-c2ccc3c(c2)c(C(C)=O)nn3CC(=O)N2[C@H](C(=O)Nc3cncc(Br)n3)C[C@@]3(C)C[C@@H]23)cn1 [Compound 486] here?
A: < 1 µM

Q: With CC1Oc2cccc(NC(=O)[C@@H]3C[C@@H](F)CN3C(=O)Cn3nc(C(N)=O)c4cc(-c5ccnnc5)ccc43)c2NC1=O (stereo partly drawn) [Compound 152, 1-(2-((2S,4R)-4-fluoro-2-(2-methyl-3-oxo-3,4-dihydro-2H-benzo[b][1,4]oxazin-5-ylcarbamoyl)pyrrolidin-1-yl)-2-oxoethyl)-5-(pyridazin-4-yl)-1H-indazole-3-carboxamide] as the molecule, how does the IC50 [4] read?
A: > 10 µM

Q: Which IC50 [4] does the source give for CC(=O)c1cn(CC(=O)N2C[C@H](F)C[C@H]2C(=O)Nc2cccc(Br)n2)c2ccc(-c3cnc(C#N)nc3)cc12 [Compound 82, (2S,4R)-1-(2-(3-acetyl-5-(2-cyanopyrimidin-5-yl)-1H-indol-1-yl)acetyl)-N-(6-bromopyridin-2-yl)-4-fluoropyrrolidine-2-carboxamide] here?
A: < 1 µM

Q: CC(=O)c1nn(CC(=O)N2C[C@H](F)C[C@H]2C(=O)Nc2cccc(Br)c2F)c2ccc(-c3cnc(C)nc3)cc12 [Compound 273, (2S,4R)-1-(2-(3-acetyl-5-(2-methylpyrimidin-5-yl)-1H-indazol-1-yl)acetyl)-N-(3-bromo-2-fluorophenyl)-4-fluoropyrrolidine-2-carboxamide] was tested. Which IC50 [1] did it give?
A: < 1 µM

Q: For Cc1ncc(-c2ccc3c(c2)c(C(C)O)nn3CC(=O)N2C[C@H](F)C[C@H]2C(=O)Nc2cccc(Br)n2)cn1 (stereo partly drawn) [Compound 360, (2S,4R)-N-(6-bromopyridin-2-yl)-4-fluoro-1-(2-(3-(1-hydroxyethyl)-5-(2-methylpyrimidin-5-yl)-1H-indazol-1-yl)acetyl)pyrrolidine-2-carboxamide], which IC50 is on record?
A: 1 to 10 µM

Q: For CC(=O)c1nn(CC(=O)N2C[C@H](F)C[C@H]2C(=O)Nc2cncc(Br)n2)c2ccc(-c3cnc4ccnn4c3)cc12 [Compound 322, (2S,4R)-1-(2-(3-acetyl-5-(pyrazolo[1,5-a]pyrimidin-6-yl)-1H-indazol-1-yl)acetyl)-N-(6-bromopyrazin-2-yl)-4-fluoropyrrolidine-2-carboxamide], which IC50 [1] is on record?
A: < 1 µM

Q: With CC(=O)c1nn(CC(=O)N2[C@@H]3C[C@@H]3C[C@H]2C(=O)NC2CCN(CC(F)(F)F)C2)c2ccc(-c3cnc(C)nc3)cc12 (stereo partly drawn) [Compound 611, (1R, 3S, 5R)-2-(2-(3-acetyl-5-(2-methylpyrimidin-5-yl)-1H-indazol-1-yl)acetyl)-N-(1-(2,2,2-trifluoroethyl)pyrrolidin-3-yl)-2-azabicyclo [3.1.0] hexane-3-carboxamide] as the molecule, how does the IC50 [3] read?
A: < 1 µM

Q: How did the IC50 [2] turn out when CC(=O)c1nn(CC(=O)N2C[C@H](F)C[C@H]2C(=O)Nc2cccc(Br)n2)c2ccc(-c3cnc(C)cn3)cc12 [Compound 465, (2S,4R)-1-(2-(3-Acetyl-5-(5-methylpyrazin-2-yl)-1H-indazol-1-yl)acetyl)-N-(6-bromopyridin-2-yl)-4-fluoropyrrolidine-2-carboxamide] was run?
A: < 1 µM

Q: For CC(=O)c1cn(CC(=O)N2C[C@H](F)C[C@H]2C(=O)N[C@H]2CCC[C@@H]2OCc2ccccc2)c2ccc(-c3ccnnc3)cc12 [Compound 77, (2S,4R)-1-(2-(3-acetyl-5-(pyridazin-4-yl)-1H-indol-1-yl)acetyl)-N-((1S,2S)-2-(benzyloxy)cyclopentyl)-4-fluoropyrrolidine-2-carboxamide], which IC50 [4] is on record?
A: > 10 µM

Q: How did the IC50 [3] turn out when CC(=O)c1nn(CC(=O)N2C[C@H](F)C[C@H]2C(=O)Nc2nc(Br)ccc2C(=O)O)c2ccc(-c3cnc(C)nc3)cc12 [Compound 615, 2-((2S,4R)-1-(2-(3-Acetyl-5-(2-methylpyrimidin-5-yl)-1H-indazol-1-yl)acetyl)-4-fluoropyrrolidine-2-carboxamido)-6-bromonicotinic acid] was run?
A: < 1 µM
